# According to patent US11326207B2, “Sequencing using non-natural nucleotides” (Ultima Genomics, Inc., priority 2017, dated 2022):
# Assays:
# Type in all cases: biochemical
# Bst 2.0 DNA polymerase [1] = experiment: Homopolymer assay of dCTP analogs (Example 9); conditions: rates of fluorescence, homopolymer template
# Procedure: (§1) A homopolymer assay was performed to investigate the effectiveness of E-dCTP and P-dUTP as nucleotide analogs of dCTP. 50 μl solutions containing a template nucleic acid molecule and primer and Bst 2.0 DNA polymerase are placed in a microplate reader and the fluorescence of the solution is measured in kinetic mode. A fluorescein attached to an oligonucleotide (indicated with a * in FIG. 7) was quenched in the substrate due to the proximity of complementary G bases. Addition of dCTP and/or dCTP analogs causes extension of the 3′ end of the primer, formation of double-stranded DNA, and unquenching of the fluorescein. The fluorescence increases with the addition of multiple nucleotides.
# Bst 2.0 DNA polymerase [2] = experiment: Homopolymer assays of nucleotide analogs (Example 10); conditions: Natural Nucleotide C (dCTP = 1); template oligo 333, primer 221L
# Procedure: as §1
# Additional homopolymer assays were performed according to the procedure outlined in Example 8 using different nucleotides and nucleotide analogs.
# To test for dUTP or TTP incorporation, oligo 332 was used as a template and oligo 221L was used as a primer. To test for dCTP incorporation, oligo 333 was used as a template and oligo 221L was used as a primer. To test for dGTP incorporation, oligo 334 was used as a template and oligo 221L was used as a primer. To test for dATP incorporation, hairpin oligo 221 was used as both a primer and template.
# Bst DNA polymerase = biological target: T1, Bst DNA polymerase (Geobacillus stearothermophilus, UniProt P52026); experiment: Replacement of dCTP with P-dCTP, context metric (Example 10)
# T1 sequence (P52026 1-876): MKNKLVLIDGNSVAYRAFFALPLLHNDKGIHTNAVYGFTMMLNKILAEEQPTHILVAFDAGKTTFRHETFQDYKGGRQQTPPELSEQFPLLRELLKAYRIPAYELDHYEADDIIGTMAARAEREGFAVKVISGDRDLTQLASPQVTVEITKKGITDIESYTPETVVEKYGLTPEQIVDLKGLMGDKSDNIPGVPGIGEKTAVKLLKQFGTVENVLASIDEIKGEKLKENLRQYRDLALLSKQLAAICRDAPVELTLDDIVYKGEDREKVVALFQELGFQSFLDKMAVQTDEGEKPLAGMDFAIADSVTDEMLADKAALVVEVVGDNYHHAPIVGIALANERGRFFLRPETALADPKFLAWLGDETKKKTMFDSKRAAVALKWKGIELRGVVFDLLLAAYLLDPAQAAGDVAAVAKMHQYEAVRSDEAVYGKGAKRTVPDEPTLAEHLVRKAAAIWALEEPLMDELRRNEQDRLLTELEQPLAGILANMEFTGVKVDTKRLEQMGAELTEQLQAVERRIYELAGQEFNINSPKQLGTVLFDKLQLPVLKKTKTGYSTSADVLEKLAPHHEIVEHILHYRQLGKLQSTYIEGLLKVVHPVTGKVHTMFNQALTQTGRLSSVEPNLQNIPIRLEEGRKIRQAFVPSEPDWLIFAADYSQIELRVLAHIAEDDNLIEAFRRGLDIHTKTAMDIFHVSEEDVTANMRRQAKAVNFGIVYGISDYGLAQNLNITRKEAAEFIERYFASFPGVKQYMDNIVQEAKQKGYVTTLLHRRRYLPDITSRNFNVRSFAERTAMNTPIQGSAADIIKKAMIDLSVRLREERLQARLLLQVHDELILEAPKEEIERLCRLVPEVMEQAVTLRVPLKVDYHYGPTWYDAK
# Source text: A microscope slide surface was modified with polyaminosilane to allow the attachment of 1 micron beads each containing one of three different oligonucleotide templates. To each template was bound an oligonucleotide primer and Bst DNA polymerase. Solutions of mixtures of labeled and unlabeled nucleotide, of one type at a time, were exposed to the surface, followed by a wash solution. The fluorescence of labeled beads was detected and quantitated. The fluorescence label was cleaved by treatment with tris(hydroxypropyl)phosphine (THP) after each step.
# Context was measured for each experiment. Context is given by the context metric, C, which is defined as the (maximum-minimum signal)/average signal.
# Experiments were performed replacing dCTP with P-dCTP for three different oligonucleotide templates.
rate of incorporation compared with natural dCTP (Bst 2.0 DNA polymerase [1]),Structure (SMILES),Relative Rate in Homopolymer Assay (Bst 2.0 DNA polymerase [2]),C (context metric) (Bst DNA polymerase; Oligonucleotide template 1),C (context metric) (Bst DNA polymerase; Oligonucleotide template 2),C (context metric) (Bst DNA polymerase; Oligonucleotide template 3)
much faster than that of natural dCTP,"C#Cc1cn([C@H]2C[C@H](O)[C@@H](COP(=O)(O)OP(=O)(O)OP(=O)(O)O)O2)c(=O)nc1N [E-dCTP, 5-ethynyl-2′-deoxycytidine 5′triphosphate]",>1,–,–,–
–,"Nc1ccn([C@H]2C[C@H](O)[C@@H](COP(=O)(O)OP(=O)(O)OP(=O)(O)O)O2)c(=O)n1 [dCTP, deoxycytidine triphosphate]",1,0.85,0.72,0.70
